Measurements published in the supplement of paper PMC12463676, “Small-molecule dissolution of stress granules by redox modulation benefits ALS models” (Nature Chemical Biology, 2025).

How the values were obtained:
potassium arsenate = compound: O=[As]([O-])(O)O.[K+] [potassium arsenate]; assay: thermal stability z-score vs DMSO; higher = more thermally stabilized by treatment; conditions: HeLa; arsenate concentration 1 mM
Experimental: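 Cellular thermal proteome profiling in HeLa cells treated with 1 mM arsenate for 1 h (DMSO pretreatment), heated to ten temperatures (37-66.3 °C). Soluble protein was quantified by TMT mass spectrometry relative to DMSO controls; the thermal stability score was transformed to a z-score; mean of n = 3 experiments.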

lipoamide = compound: NC(=O)CCCCC1CCSS1 [lipoamide]; assay: as above; conditions: HeLa, lipoamide concentration 100 µM
Experimental: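 Cellular thermal proteome profiling in HeLa cells. Cells were treated with 100 µM lipoamide for 1 h, with or without 1 mM arsenate for a further 1 h, then heated to ten temperatures (37-66.3 °C), and soluble protein was quantified by TMT mass spectrometry relative to 0.1% DMSO controls. The thermal stability score (sum of log2 fold changes minus the abundance score) was transformed to a z-score; mean of n = 3 experiments.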

[1] = arsenate co-treatment: 1 mM arsenate 1 h
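Note: each temperature applied for 3 min, abundance score taken as mean log2 fold change at the two lowest temperatures, z-score obtained by mean subtraction and division by SD.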

Chain of UniProt P98196 (P98196 whole entry): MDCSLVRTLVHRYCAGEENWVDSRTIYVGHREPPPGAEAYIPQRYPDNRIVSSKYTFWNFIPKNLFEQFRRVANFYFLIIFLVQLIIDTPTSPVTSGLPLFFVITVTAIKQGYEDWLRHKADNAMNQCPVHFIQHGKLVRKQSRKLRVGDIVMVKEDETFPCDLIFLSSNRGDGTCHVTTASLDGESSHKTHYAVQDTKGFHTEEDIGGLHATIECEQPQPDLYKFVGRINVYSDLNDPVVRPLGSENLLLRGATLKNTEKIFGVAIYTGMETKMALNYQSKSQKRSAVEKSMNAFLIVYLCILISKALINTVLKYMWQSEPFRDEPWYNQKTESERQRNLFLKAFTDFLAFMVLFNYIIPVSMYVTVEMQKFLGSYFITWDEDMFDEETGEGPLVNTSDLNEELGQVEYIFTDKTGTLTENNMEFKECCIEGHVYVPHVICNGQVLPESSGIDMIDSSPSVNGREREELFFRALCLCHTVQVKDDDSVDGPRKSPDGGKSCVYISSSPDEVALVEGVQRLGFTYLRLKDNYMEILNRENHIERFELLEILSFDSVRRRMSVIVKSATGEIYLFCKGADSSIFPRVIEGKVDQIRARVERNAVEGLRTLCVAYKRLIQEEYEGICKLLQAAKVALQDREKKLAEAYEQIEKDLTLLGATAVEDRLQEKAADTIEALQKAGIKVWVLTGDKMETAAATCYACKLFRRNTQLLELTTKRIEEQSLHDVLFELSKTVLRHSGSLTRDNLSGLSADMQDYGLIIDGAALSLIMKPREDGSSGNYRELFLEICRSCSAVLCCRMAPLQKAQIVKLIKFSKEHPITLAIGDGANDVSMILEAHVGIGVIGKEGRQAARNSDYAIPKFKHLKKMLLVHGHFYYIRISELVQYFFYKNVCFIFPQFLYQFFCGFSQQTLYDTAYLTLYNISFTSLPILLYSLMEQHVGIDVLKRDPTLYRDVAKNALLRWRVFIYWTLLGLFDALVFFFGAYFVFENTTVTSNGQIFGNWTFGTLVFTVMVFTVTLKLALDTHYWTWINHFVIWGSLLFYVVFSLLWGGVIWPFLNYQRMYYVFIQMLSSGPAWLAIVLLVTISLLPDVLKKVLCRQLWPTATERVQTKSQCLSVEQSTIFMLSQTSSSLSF
Chain of UniProt P29353 (P29353 whole entry): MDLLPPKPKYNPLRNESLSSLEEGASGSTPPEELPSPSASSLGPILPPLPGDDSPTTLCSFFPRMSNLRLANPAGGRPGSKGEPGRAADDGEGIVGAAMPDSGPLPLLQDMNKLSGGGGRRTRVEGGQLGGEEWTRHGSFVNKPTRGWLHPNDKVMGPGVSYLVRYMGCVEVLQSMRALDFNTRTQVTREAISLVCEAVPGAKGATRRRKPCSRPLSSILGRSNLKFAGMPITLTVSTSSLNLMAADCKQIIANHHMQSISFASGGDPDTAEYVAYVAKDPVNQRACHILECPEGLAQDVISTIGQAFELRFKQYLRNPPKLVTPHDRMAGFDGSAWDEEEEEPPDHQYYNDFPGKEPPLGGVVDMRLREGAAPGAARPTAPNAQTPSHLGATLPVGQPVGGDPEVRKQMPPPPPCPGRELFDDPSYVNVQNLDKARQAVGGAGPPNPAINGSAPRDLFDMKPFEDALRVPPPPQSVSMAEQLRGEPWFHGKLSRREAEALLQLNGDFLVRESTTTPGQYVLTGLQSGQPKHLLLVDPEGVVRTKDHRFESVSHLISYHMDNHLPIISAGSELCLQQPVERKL
Chain of UniProt Q9NSI2 (Q9NSI2 whole entry): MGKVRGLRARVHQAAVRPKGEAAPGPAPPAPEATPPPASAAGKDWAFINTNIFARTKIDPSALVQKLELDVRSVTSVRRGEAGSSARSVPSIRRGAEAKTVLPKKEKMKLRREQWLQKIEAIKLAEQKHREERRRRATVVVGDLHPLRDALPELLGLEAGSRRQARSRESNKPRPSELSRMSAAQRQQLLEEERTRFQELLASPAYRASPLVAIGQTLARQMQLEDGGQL
Chain of UniProt P53621 (P53621 whole entry): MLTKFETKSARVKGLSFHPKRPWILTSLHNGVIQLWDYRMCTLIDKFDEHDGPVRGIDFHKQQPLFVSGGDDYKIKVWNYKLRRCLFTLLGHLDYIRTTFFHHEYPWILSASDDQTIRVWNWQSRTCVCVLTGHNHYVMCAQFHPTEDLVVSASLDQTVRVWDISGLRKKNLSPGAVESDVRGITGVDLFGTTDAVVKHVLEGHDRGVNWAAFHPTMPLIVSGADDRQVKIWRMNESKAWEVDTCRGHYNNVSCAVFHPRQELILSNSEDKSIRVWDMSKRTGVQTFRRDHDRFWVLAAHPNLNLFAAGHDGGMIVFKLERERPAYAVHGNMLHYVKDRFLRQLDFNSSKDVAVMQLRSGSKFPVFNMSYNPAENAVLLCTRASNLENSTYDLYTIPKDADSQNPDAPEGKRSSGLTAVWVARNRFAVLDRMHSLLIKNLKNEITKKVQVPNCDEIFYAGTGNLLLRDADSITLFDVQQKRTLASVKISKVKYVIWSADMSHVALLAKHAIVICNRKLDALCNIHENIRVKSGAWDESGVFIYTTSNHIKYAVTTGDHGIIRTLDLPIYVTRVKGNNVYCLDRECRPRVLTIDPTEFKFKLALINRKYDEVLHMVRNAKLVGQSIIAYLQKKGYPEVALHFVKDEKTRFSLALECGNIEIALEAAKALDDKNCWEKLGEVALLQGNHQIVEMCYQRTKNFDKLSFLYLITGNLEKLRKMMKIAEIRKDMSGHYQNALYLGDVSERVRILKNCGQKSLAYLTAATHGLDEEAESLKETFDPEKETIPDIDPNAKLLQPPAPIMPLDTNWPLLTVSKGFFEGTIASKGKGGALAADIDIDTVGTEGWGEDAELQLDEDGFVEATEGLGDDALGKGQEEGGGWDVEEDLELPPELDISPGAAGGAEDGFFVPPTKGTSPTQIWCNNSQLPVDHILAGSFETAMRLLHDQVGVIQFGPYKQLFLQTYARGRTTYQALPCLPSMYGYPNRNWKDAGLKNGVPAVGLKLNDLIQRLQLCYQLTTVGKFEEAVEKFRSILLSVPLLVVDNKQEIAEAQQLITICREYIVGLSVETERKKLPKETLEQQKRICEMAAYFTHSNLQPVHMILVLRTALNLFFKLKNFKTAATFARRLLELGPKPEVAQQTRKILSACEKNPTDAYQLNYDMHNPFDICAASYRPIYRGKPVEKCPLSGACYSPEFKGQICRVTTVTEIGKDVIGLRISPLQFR
Chain of UniProt Q9UKV8 (Q9UKV8 whole entry): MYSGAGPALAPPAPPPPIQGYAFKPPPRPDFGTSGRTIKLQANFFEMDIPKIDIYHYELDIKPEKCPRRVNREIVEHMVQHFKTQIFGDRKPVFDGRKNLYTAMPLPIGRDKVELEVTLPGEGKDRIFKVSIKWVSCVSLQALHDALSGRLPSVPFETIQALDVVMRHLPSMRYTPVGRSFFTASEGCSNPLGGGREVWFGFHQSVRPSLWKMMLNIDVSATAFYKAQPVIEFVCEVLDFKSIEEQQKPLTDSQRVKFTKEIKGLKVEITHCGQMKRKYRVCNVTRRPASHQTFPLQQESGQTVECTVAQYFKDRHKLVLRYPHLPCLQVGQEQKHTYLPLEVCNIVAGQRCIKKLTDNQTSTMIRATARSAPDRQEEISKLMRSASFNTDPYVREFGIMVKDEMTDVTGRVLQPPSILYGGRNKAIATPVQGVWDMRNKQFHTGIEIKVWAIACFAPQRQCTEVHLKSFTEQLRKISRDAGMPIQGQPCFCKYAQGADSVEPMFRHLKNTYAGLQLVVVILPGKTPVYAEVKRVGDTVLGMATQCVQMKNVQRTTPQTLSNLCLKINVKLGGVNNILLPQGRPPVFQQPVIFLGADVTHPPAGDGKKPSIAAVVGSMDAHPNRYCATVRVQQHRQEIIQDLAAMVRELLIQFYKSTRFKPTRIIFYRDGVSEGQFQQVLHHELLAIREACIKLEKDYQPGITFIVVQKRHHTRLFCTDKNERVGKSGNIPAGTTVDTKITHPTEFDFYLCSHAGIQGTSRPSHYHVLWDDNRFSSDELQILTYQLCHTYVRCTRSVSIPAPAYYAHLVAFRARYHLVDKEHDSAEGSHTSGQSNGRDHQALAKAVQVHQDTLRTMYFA
Chain of UniProt O75477 (O75477 whole entry): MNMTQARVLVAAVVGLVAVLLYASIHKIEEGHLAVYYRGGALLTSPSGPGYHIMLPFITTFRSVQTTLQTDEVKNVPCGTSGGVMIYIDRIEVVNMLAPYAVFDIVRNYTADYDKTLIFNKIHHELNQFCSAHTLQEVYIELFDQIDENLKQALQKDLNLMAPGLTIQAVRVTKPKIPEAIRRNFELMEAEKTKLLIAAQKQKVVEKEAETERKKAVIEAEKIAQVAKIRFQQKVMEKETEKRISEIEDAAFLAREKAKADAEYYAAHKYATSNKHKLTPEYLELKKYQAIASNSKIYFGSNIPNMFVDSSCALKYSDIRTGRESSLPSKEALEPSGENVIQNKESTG
Chain of UniProt Q99873 (Q99873 whole entry, looked up): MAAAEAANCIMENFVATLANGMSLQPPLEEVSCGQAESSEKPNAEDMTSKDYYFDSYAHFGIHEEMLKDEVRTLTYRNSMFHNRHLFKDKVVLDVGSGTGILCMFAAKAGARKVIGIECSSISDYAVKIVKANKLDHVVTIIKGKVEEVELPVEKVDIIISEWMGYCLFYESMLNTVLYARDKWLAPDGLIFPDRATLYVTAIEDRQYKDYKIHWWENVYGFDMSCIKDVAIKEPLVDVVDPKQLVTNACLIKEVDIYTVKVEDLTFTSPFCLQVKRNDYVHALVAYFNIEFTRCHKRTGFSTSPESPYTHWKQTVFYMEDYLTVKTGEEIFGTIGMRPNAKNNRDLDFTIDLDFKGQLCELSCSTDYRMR
Chain of UniProt P63167 (P63167 whole entry): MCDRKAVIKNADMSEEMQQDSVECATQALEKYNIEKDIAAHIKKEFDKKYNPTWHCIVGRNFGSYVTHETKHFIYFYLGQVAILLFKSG
Chain of UniProt O14548 (O14548 whole entry): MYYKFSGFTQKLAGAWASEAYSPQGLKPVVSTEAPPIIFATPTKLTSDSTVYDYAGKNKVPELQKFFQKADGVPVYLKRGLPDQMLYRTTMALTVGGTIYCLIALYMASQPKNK

Row | Target | thermal stability z-score (potassium arsenate) | thermal stability z-score (lipoamide; [1]) | thermal stability z-score (lipoamide; arsenate co-treatment: none)
1 | RCOR3 (UniProt Q9P2K3) | 0.119 | 0.0711 | 0.0826
2 | MTMR12 (UniProt Q9C0I1) | -0.0618 | 0.611 | -0.0556
3 | CDC123 (UniProt O75794) | 3.29 | 0.8 | -0.214
4 | PRMT1 (UniProt Q99873) | -0.12 | 0.147 | 0.262
5 | NTHL1 (UniProt P78549) | -0.137 | 0.00215 | -0.00667
6 | SKP2 (UniProt Q13309) | -0.872 | -0.219 | -0.122
7 | FAM174A (UniProt Q8TBP5) | 1.14 | 0.351 | 0.647
8 | MND1 (UniProt Q9BWT6) | 0.296 | -0.235 | -0.0119
9 | COPA (UniProt P53621) | 0.594 | -0.0346 | 0.0865
10 | TIMM21 (UniProt Q9BVV7) | 0.255 | 0.0115 | 0.000788
11 | ATP6V1E1 (UniProt P36543) | 0.637 | 0.0691 | -0.201
12 | NBAS (UniProt A2RRP1) | -0.0529 | 0.00568 | 0.0731
13 | DUS1L (UniProt Q6P1R4) | 0.0119 | 0.178 | -0.547
14 | DHX40 (UniProt Q8IX18) | -0.0831 | 0.111 | 0.0273
15 | PEG10 (UniProt Q86TG7) | -0.109 | -0.289 | -0.464
16 | EPB41L1 (UniProt Q9H4G0) | 0.139 | -0.509 | -0.127
17 | SHC1 (UniProt P29353) | 0.126 | -0.383 | 0.739
18 | CORO7 (UniProt P57737) | -0.177 | 0.188 | 0.174
19 | SEC24A (UniProt O95486) | 0.178 | -0.232 | -0.0421
20 | FNTA (UniProt P49354) | 0.355 | -0.0233 | -0.0253
21 | LARP4B (UniProt Q92615) | -0.111 | 0.048 | 0.174
22 | PIEZO1 (UniProt Q92508) | 0.19 | -0.342 | 0.0689
23 | MCCC1 (UniProt Q96RQ3) | -0.585 | -0.187 | -0.191
24 | SLC1A5 (UniProt Q15758) | 0.00339 | 0.752 | 0.31
25 | SUMO1 (UniProt P63165) | 1.09 | -0.294 | -0.0784
26 | IRS2 (UniProt Q9Y4H2) | -1.42 | -0.525 | -0.112
27 | NFATC2IP (UniProt Q8NCF5) | -0.254 | -0.124 | -0.127
28 | HMGCS1 (UniProt Q01581) | 0.164 | 1.34 | 0.0808

Row | Target | thermal stability z-score (potassium arsenate) | thermal stability z-score (lipoamide; [1]) | thermal stability z-score (lipoamide; arsenate co-treatment: none)
29 | CASK (UniProt O14936) | -0.0604 | 0.388 | 0.281
30 | RRP1B (UniProt Q14684) | -0.0634 | 0.131 | 0.133
31 | AP2A1 (UniProt O95782) | 1.19 | -0.0653 | 0.3
32 | ERLIN1 (UniProt O75477) | -1.15 | -3.16 | -2.57
33 | AGPAT2 (UniProt O15120) | 0.392 | -0.401 | 0.198
34 | PREB (UniProt Q9HCU5) | -0.0461 | -0.337 | -0.353
35 | RUFY2 (UniProt Q8WXA3) | -0.0152 | -0.19 | -0.0853
36 | PRPF8 (UniProt Q6P2Q9) | -0.418 | -0.186 | -0.395
37 | TRIM4 (UniProt Q9C037) | -0.143 | -0.218 | 0.0313
38 | COX7A2L (UniProt O14548) | -0.221 | 0.761 | 0.522
39 | GTF2H4 (UniProt Q92759) | 0.148 | 0.108 | 0.112
40 | GGPS1 (UniProt O95749) | -0.212 | 0.498 | 0.521
41 | MED24 (UniProt O75448) | -0.0686 | 0.0619 | -0.0126
42 | NSMCE2 (UniProt Q96MF7) | 0.541 | 0.278 | 0.339
43 | AGO2 (UniProt Q9UKV8) | -0.204 | 0.826 | 0.402
44 | DYNLL1 (UniProt P63167) | 0.163 | -0.627 | -0.0429
45 | ARCN1 (UniProt P48444) | 0.383 | 0.128 | -0.0303
46 | PCYT2 (UniProt Q99447) | -0.938 | 0.0344 | -0.0669
47 | GFPT2 (UniProt O94808) | -0.593 | 0.344 | -0.0258
48 | FAM207A (UniProt Q9NSI2) | 0.566 | 0.062 | 0.578
49 | AVEN (UniProt Q9NQS1) | -0.823 | 0.134 | -0.00487
50 | NUP155 (UniProt O75694) | 0.275 | -0.814 | -0.769
51 | AKAP2 | -0.839 | 1.28 | 0.638
52 | CTU1 (UniProt Q7Z7A3) | -0.16 | -0.119 | -0.0524
53 | ATP11A (UniProt P98196) | -0.309 | -0.441 | 0.419
54 | NDUFA7 (UniProt O95182) | 0.128 | 0.276 | 0.141
55 | SRSF1 (UniProt Q07955) | -0.17 | 2.02 | 0.446
